# US20180333382A1, “PHARMACEUTICAL COMPOSITIONS COMPRISING DGLA AND USE OF SAME” (DS Biopharma Limited, priority 2017, published 2018)
# Like-named read-outs stand apart in the source and are kept apart here.
# Assay: Phase one study part 2: multiple dose (28 days) plasma PK of free and total DGLA
# Format: in vivo, human
# Conditions: for Tmax / half-life: human, plasma, oral; for half-life: read-out: t1/2, median, free DGLA, baseline-corrected plasma (converted); for free DGLA Peak Trough Fluctuation (PTF), mean: steady state Day 28 (0-24 hours)
# Method: Multiple dose part two of the study comprised two cohorts (Cohorts five and six) of eight subjects each, who were administered multiple doses of study drug in the fasted state for 28 days. Subjects in Cohorts five and six received DS107G at 2000 or 4000 mg, respectively, or matching placebo once daily for 28 days. Cohort six was started after Cohort five's safety data were evaluated by the SMC. No interim analysis was planned. […]
# In Part two of the study (Cohorts five and six), subjects were administered study drug (500-mg DS107G capsules or matching placebo capsules) once daily in the fasted state for 28 days. Subjects in Cohort five received study drug first and, if they tolerated the 2000-mg daily dose for the first 14 days, subjects in Cohort six were started on the 4000-mg daily dose for 28 days.
# PK parameter was computed after correcting the dosed DGLA concentrations with baseline DGLA concentrations.
# [1] = 4000 mg once daily, Day 28, 0 to 24 hours
# [2] = 4000 mg once daily, Day 28, 0 to 168 hours
# [3] = 4000 mg once daily, Day 28: 0 to 24 hours
smiles,measurement,setting,value
"CCCCC/C=C\C/C=C\C/C=C\CCCCCCC(=O)O [DS107G, Dihomo gamma linolenic acid]","AUC0-24, mean, free DGLA, baseline-corrected plasma",[1],16155.2 ng·h/mL
same,"AUC0-24/Dose, mean, free DGLA, baseline-corrected plasma",[1],4.04 h/kL
same,"AUC0-24/Dose, mean, total DGLA, baseline-corrected plasma",[1],465.14 h/kL
same,"AUC0-inf, mean, free DGLA, baseline-corrected plasma",[1],22926.3 ng·h/mL
same,"AUC0-inf/Dose, mean, free DGLA, baseline-corrected plasma",[1],5.73 h/kL
same,"AUC0-inf/Dose, mean, total DGLA, baseline-corrected plasma",[1],1194.91 h/kL
same,"CL/F, mean, free DGLA, baseline-corrected plasma",[1],0.1865 kL/h
same,"Cmax, mean, free DGLA, baseline-corrected plasma",[1],2873.2 ng/mL
same,"Cmax/Dose, mean, free DGLA, baseline-corrected plasma",[1],0.718 kL⁻¹
same,"Cmax/Dose, mean, total DGLA, baseline-corrected plasma",[1],22.717 kL⁻¹
same,"λz, mean, free DGLA, baseline-corrected plasma",[1],0.0596 h⁻¹
same,"λz, mean, total DGLA, baseline-corrected plasma",[1],0.0471 h⁻¹
same,"AUC0-24, mean, free DGLA, baseline-corrected plasma",[2],16155.2 ng·h/mL
same,"AUC0-24/Dose, mean, free DGLA, baseline-corrected plasma",[2],4.04 h/kL
same,"AUC0-24/Dose, mean, total DGLA, baseline-corrected plasma",[2],465.14 h/kL
same,"AUC0-inf, mean, free DGLA, baseline-corrected plasma",[2],43184.3 ng·h/mL
same,"AUC0-inf/Dose, mean, free DGLA, baseline-corrected plasma",[2],10.80 h/kL
same,"AUC0-inf/Dose, mean, total DGLA, baseline-corrected plasma",[2],1575.98 h/kL
same,"CL/F, mean, free DGLA, baseline-corrected plasma",[2],0.1266 kL/h
same,"Cmax, mean, free DGLA, baseline-corrected plasma",[2],2873.2 ng/mL
same,"Cmax/Dose, mean, free DGLA, baseline-corrected plasma",[2],0.718 kL⁻¹
same,"Cmax/Dose, mean, total DGLA, baseline-corrected plasma",[2],22.717 kL⁻¹
same,"λz, mean, free DGLA, baseline-corrected plasma",[2],0.0404 h⁻¹
same,"λz, mean, total DGLA, baseline-corrected plasma",[2],0.0194 h⁻¹
same,"% PTF (peak trough fluctuation), mean, free DGLA, steady-state baseline-corrected plasma",[3],431.97%
same,"% PTF (peak trough fluctuation), mean, total DGLA, steady-state baseline-corrected plasma",[3],44.90%
same,"AR(AUC) accumulation ratio, mean, free DGLA, steady-state baseline-corrected plasma",[3],1.561
same,"AR(AUC) accumulation ratio, mean, total DGLA, steady-state baseline-corrected plasma",[3],4.163
same,"AR(Cmax) accumulation ratio, mean, free DGLA, steady-state baseline-corrected plasma",[3],1.385
same,"AR(Cmax) accumulation ratio, mean, total DGLA, steady-state baseline-corrected plasma",[3],3.440
same,"CLss/F, mean, free DGLA, steady-state baseline-corrected plasma",[3],0.2858 kL/h
same,"CLss/F, mean, total DGLA, steady-state baseline-corrected plasma",[3],0.0025 kL/h
same,"Cavg, mean, free DGLA, steady-state baseline-corrected plasma",[3],673.1 ng/mL
same,"Cavg, mean, total DGLA, steady-state baseline-corrected plasma",[3],77523.9 ng/mL
same,"Cmin, mean, free DGLA, steady-state baseline-corrected plasma",[3],147.0 ng/mL
same,"Cmin, mean, total DGLA, steady-state baseline-corrected plasma",[3],59216.7 ng/mL
same,"Vzss/F, mean, free DGLA, steady-state baseline-corrected plasma",[3],5.7563 kL
same,"Vzss/F, mean, total DGLA, steady-state baseline-corrected plasma",[3],0.1047 kL
same,"tmin, median, free DGLA, steady-state baseline-corrected plasma",[3],8.00 h
same,"tmin, median, total DGLA, steady-state baseline-corrected plasma",[3],2.00 h
same,"time to reach steady-state plasma concentrations, free and total DGLA",2000 and 4000 mg daily,~14 days
same,"free DGLA mean baseline-corrected AUC0-24, 4000 mg vs 2000 mg dose",Day 1,~2.5 fold
same,"free DGLA mean baseline-corrected Cmax, 4000 mg vs 2000 mg dose",Day 1,~3 fold
same,"total DGLA mean baseline-corrected AUC0-24, 4000 mg vs 2000 mg dose",Day 1,~1.5 fold
same,"total DGLA mean baseline-corrected Cmax, 4000 mg vs 2000 mg dose",Day 1,~1.5 fold
same,"free DGLA mean baseline-corrected AUC0-24, 4000 mg vs 2000 mg dose",Day 28,~1.7 fold
same,"free DGLA mean baseline-corrected Cmax, 4000 mg vs 2000 mg dose",Day 28,~1.4 fold
same,"total DGLA mean baseline-corrected AUC0-24, 4000 mg vs 2000 mg dose",Day 28,~1.4 fold
same,"total DGLA mean baseline-corrected Cmax, 4000 mg vs 2000 mg dose",Day 28,~1.2 fold
same,time of peak mean concentration of free DGLA after dosing,"Days 1 and 28, 2000 and 4000 mg daily",about 4 hours
same,Tmax,"both sexes, both dose cohorts, Day 1 and Day 28, read-out: free DGLA median tmax",4 to 5 h
same,half-life,"2000 mg, 2000 mg once daily, Day 1, 0 to 24 hours",4.71 h
same,Tmax,"2000 mg, 2000 mg once daily, Day 1, 0 to 24 hours, read-out: tmax, median, free DGLA, baseline-corrected plasma",4 h
same,half-life,"2000 mg, 2000 mg once daily, Day 28, 0 to 24 hours",14 h
same,Tmax,"2000 mg, 2000 mg once daily, Day 28, 0 to 24 hours, read-out: tmax, median, free DGLA, baseline-corrected plasma",4 h
same,half-life,"2000 mg, 2000 mg once daily, Day 28, 0 to 168 hours",63.6 h
same,Tmax,"2000 mg, 2000 mg once daily, Day 28, 0 to 168 hours, read-out: tmax, median, free DGLA, baseline-corrected plasma",4 h
same,half-life,"4000 mg, 4000 mg once daily, Day 1, 0 to 24 hours",5.92 h
same,Tmax,"4000 mg, 4000 mg once daily, Day 1, 0 to 24 hours, read-out: tmax, median, free DGLA, baseline-corrected plasma",5 h
same,half-life,"4000 mg, 4000 mg once daily, Day 28, 0 to 24 hours",12.7 h
same,Tmax,"4000 mg, 4000 mg once daily, Day 28, 0 to 24 hours, read-out: tmax, median, free DGLA, baseline-corrected plasma",4 h
same,half-life,"4000 mg, 4000 mg once daily, Day 28, 0 to 168 hours",48.2 h
same,Tmax,"4000 mg, 4000 mg once daily, Day 28, 0 to 168 hours, read-out: tmax, median, free DGLA, baseline-corrected plasma",4 h
same,"increase of average concentration at steady state when dose doubled from 2000 to 4000 mg daily, free DGLA",in vivo,1.6 fold
same,"increase of average concentration at steady state when dose doubled from 2000 to 4000 mg daily, total DGLA",in vivo,1.2 fold
same,"free DGLA Peak Trough Fluctuation (PTF), mean",first value of both dose cohorts (2000 mg),~430%
same,"free DGLA Peak Trough Fluctuation (PTF), mean",second value of both dose cohorts (4000 mg),~490%
